Assay results published in patent US20120122727A1, “IN VITRO METHOD FOR PREDICTING WHETHER A COMPOUND IS GENOTOXIC IN VIVO” (priority 2009, published 2012).

How the values were obtained:
[1] = tested on: primary mouse hepatocytes; test: Gene expression (Affymetrix Mouse Genome 430 2.0) in primary mouse hepatocytes, true vs false GTX, 24 h and 48 h; conditions: 48 h; log2, corrected for vehicle control
[2] = tested on: primary mouse hepatocytes; test: Gene expression in primary mouse hepatocytes, GTX vs non-GTX (four-gene classifier, 24 h)
Description: Hepatocyte cells were incubated and exposed to a compound for 24 h before being harvested for RNA isolation.
The results of the gene expression analysis may then be fed into a statistical software package such as R, Splus, or Microsoft Excel. […] If none or only one of these criteria were met, no point was scored.
For each of the four genes mentioned in the table (1700007K13RIK, GAS2L3, SPC25, DDIT4L), a statistical comparison was made between the normalized expression data for these genes. […] If none or only one of these criteria were met, no point was scored.
For each compound, the sum of the scores for four genes is taken. If this score is 0, a compound can be believed not to be genotoxic. If this score is 1, 2, 3 or 4, a compound is genotoxic.
If none or only one of these criteria were met, no point was scored.

[3] = 24 h exposure, average of four replicates
[4] = log 2 ratio, 24 h exposure, concentration per Table 4

CN(C)N=O [DMN, Dimethylnitrosamine]
Gene expression AK017734 average [1]: 1.0611 | Gene expression AK018383 average [1]: 0.8246 | Gene expression AK019979 average [1]: −1.11 | Gene expression AV095209 average [1]: −0.454 | Gene expression AV141095 average [1]: −0.8663 | Gene expression AV173869 average [1]: −1.272 | Gene expression AV216768 average [1]: −0.2641 | Gene expression AV219418 average [1]: 4.5473 | Gene expression AV221299 average [1]: −1.5693 | Gene expression AV246296 average [1]: 0.9572 | Gene expression AV251625 average [1]: 1.246 | Gene expression AV254764 average [1]: 1.133 | Gene expression AV327248 average [1]: 4.023 | Gene expression BB009155 average [1]: 2.343 | Gene expression BB027848 average [1]: 1.191 | Gene expression BB043558 average [1]: 2.187 | Gene expression BB046347 average [1]: 0.7743 | Gene expression BB140436 average [1]: −1.281 | Gene expression BB204486 average [1]: −0.3108 | Gene expression BB223872 average [1]: 1.694 | Gene expression BB246912 average [1]: −0.9806 | Gene expression BB275142 average [1]: 1.162 | Gene expression BB458460 average [1]: −0.6934 | Gene expression BB463610 average [1]: 1.546 | Gene expression BB730977 average [1]: −0.656 | Gene expression BB743970 average [1]: 3.154 | Gene expression BB770528 average [1]: 1.709 | Gene expression BB781615 average [1]: 1.487 | Gene expression BC003284 average [1]: 1.379 | Gene expression BC004827 average [1]: −1.0689 | Gene expression BC005552 average [1]: −0.5235 | Gene expression BC006713 average [1]: 1.668 | Gene expression BC010318 average [1]: −1.167 | Gene expression BC012247 average [1]: 1.67 | Gene expression BC012955 average [1]: −1.97 | Gene expression BC013893 average [1]: 0.5487 | Gene expression BC017615 average [1]: −2.7334 | Gene expression BC019379 average [1]: −0.3602 | Gene expression BC019882 average [1]: 1.494 | Gene expression BC021352 average [1]: 3.512 | Gene expression BC022148 average [1]: 1.8449 | Gene expression BC025169 average [1]: −1.296 | Gene expression BC026131 average [1]: −0.7571 | Gene expression BC027026 average [1]: 2.571 | Gene expression BC027121 average [1]: 2.075 | Gene expression BC027185 average [1]: 1.462 | Gene expression BE956581 average [1]: 3.033 | Gene expression BF719766 average [1]: 1.2016 | Gene expression BG065754 average [1]: 0.9953 | Gene expression BG066491 average [1]: −0.9757 | Gene expression BG076151 average [1]: 1.205 | Gene expression BG076333 average [1]: −0.7995 | Gene expression BG797099 average [1]: 1.704 | Gene expression BG967046 average [1]: 1.1973 | Gene expression BI651416 average [1]: 1.8588 | Gene expression BI966443 average [1]: 3.295 | Gene expression BM198879 average [1]: 1.096 | Gene expression BM200015 average [1]: 1.16 | Gene expression BM230508 average [1]: 1.54 | Gene expression BM936480 average [1]: 0.7781 | Gene expression BQ174991 average [1]: −0.28 | Gene expression L21027 average [1]: −0.4472 | Gene expression NM_007556 average [1]: −1.29 | Gene expression NM_007980 average [1]: 0.3252 | Gene expression NM_007987 average [1]: 1.665 | Gene expression NM_008522 average [1]: 4.993 | Gene expression NM_008935 average [1]: −1.382 | Gene expression NM_009897 average [1]: 3.619 | Gene expression NM_011075 average [1]: 2.401 | Gene expression NM_011176 average [1]: 1.597 | Gene expression NM_011316 average [1]: 2.0898 | Gene expression NM_012006 average [1]: 1.6671 | Gene expression NM_013642 average [1]: 0.3461 | Gene expression NM_013738 average [1]: 1.562 | Gene expression NM_013929 average [1]: 1.891 | Gene expression NM_018881 average [1]: 0.9481 | Gene expression NM_019738 average [1]: −2.9169 | Gene expression NM_030697 average [1]: 2.5583 | Gene expression NM_053122 average [1]: −2.3248 | Gene expression NM_134147 average [1]: −1.579 | Gene expression NM_134188 average [1]: −0.6378 | Gene expression X62701 average [1]: 0.07157 | score 1700007K13RIK [2, 3]: 1 | score DDIT4L [2, 3]: 0 | score GAS2L3 [2, 3]: 0 | score SPC25 [2, 3]: 0 | Ratios of gene expression treated/untreated 1700007K13RIK [2, 4]: 2.141 | Ratios of gene expression treated/untreated DDIT4L [2, 4]: 0.7662 | Ratios of gene expression treated/untreated GAS2L3 [2, 4]: 0.2166 | Ratios of gene expression treated/untreated SPC25 [2, 4]: 0.8368 | Total score ([2]; sum of scores for four genes, 0 = not genotoxic, 1, 2, 3 or 4 = genotoxic): 1
